Measured values reported in patent US20260125357A1, “LACTATE ENHANCING COMPOUNDS AND USES THEREOF” (GLIAPHARM SA, priority 2022, published 2026).

Legend:
[1] = test system: primary astrocytes; experiment: MTT mitochondrial activity assay in primary astrocytes; format: cell-based, mouse; details: different concentrations, after 1.5 h or 24 h
Method: (§1) Primary cultures of cerebrocortical astrocytes were obtained from 1 to 2-day-old OF1 mouse pups (Charles River Laboratories). Briefly, cortices were isolated and minced in small pieces under a dissecting microscope. The cells were incubated for 30 min at 37° C. in a solution containing 20 U/ml papain, 1 mM L-cysteine and 10 kU/ml DNase I. After dissociation, papain activity was stopped by the addition of fetal calf serum (FCS). Single-cell suspension was then obtained by mechanical dissociation, which consisted in cells trituration in a DMEM D7777 medium supplemented with 44 mm NaHCO3, 10 ml/L antibiotic/antimycotic solution and 10% FCS. The cells were seeded at an average density of ˜10′000 cells/cm^2 on poly-D-lysine coated 96- or 12-well culture plates, depending on their use, and grown in DMEM D7777 medium supplemented with 44 mm NaHCO3, 10 ml/L antibiotic/antimycotic solution and 10% FCS at 37° C. in a humidified atmosphere containing 5% CO2/95% air. Culture medium was renewed twice a week. Cells were stimulated and harvested between DIV14 and DIV17, when confluence and cell growth were optimal.
To monitor mitochondrial activity in astrocytes, which is linked to the metabolic process of glycolysis and production of lactate, astrocytes in 96-well plates were stimulated for 24 h (37° C. 5% CO2/95% air) with the compounds of the invention ranging from 10 nM to 10 μM.
After stimulation, 5 mg/ml thiazol blue tetrazolium bromide (MTT) in D5030 medium complemented with 5 mM D-glucose and 44 mM sodium bicarbonate (pH 7.2) was added to each well, and cells were incubated for 4 h at 37° C. (5% CO2). The medium was then removed and the amount of reduced MTT, i.e formazan, solubilized in DMSO (50 μl/well) was determined using a spectrophotometer (absorbance of 570 nm).
The mitochondrial activity was monitored in MTT colorimetric assay in primary astrocytes treated with Compounds (1), (2), (3), (4) (5), (9) and (10) at different concentrations after 1.5 h (FIG. 2 A, B, D, E, F, C, H, respectively) or 24 h (FIG. 2 H, I, K, L, M, J, N, respectively).

[2] = test system: primary astrocytes; experiment: Extracellular medium acidification (SNARF5) assay in astrocytes; format: cell-based; details: Mus musculus, Astrocyte; astrocytes in vitro; compounds 10 nM to 30 μM; read-out: Activity (EC50 class, extracellular medium acidification SNARF5)
Method: To assess for the effect of the compounds of the invention, those were tested in primary mouse astrocytes and astrocytes differentiated from human-derived induced pluripotent stem cells (iPSCs). Secretion of lactate was measured indirectly through the acidification of extracellular medium using extracellular pH sensor SNARE-5F-(AND-6)-CAR (SNARF5) as described below.
as §1
Secretion of lactate was measured indirectly through the acidification of extracellular medium using extracellular pH sensor SNARF-5F-(AND-6)-CAR (SNARF5). After washing cells twice with stimulation medium (DMEM (D5030, Sigma), 1 mM […], and 5 mM Glucose, pH 7.4) at 37° C., cells were stimulated with compounds at a final concentration ranging from 10 nM to 30 μM in 50 μl per well of stimulation medium supplemented with 10 μM of SNARF5 (Life Technologies Corporation). Each compound was tested in two different plates for duplicates. After 30, 60 and 90 min stimulation, fluorescence was read at exc. (excitation) 480 nm/emm. (emission) 580 nm and at exc 480 nm/emm. 630 nm. The ratio of fluorescence between 630 nm and 580 emission values, which is proportional to extracellular pH, was calculated. In each plate, 8 wells were used for negative controls (DMSO 0.1%) and 8 wells were used for positive controls (CCCP 2 μM in DMSO). Results are shown as % of positive control effect (0% and 100% being activities of the Veh and positive control, respectively).

[3] = test system: C57Bl/6J wild-type mice; experiment: 18F-FDG PET glucose uptake in the brain; format: in vivo, mouse; details: gavage, 30 mg/kg, vs Vehicle
Method: All experiments were carried out in strict accordance with the Swiss Federal Guidelines for Animal Experimentation and were approved by the Cantonal Veterinary Office for Animal Experimentation (Canton of Geneva, Switzerland). Adult male C57Bl/6J wild-type mice weighting 18-28 g (8 to 12 weeks of age) were used (Charles River Laboratories). Animals were housed in groups of 3-5 in polypropylene cages (30×40×15 cm) with wire mesh top in a temperature (22±2° C.) and humidity (55±15%) controlled environment on a 12-hour light cycle (07.00-19.00 h lights on), except after surgeries when animal were housed individually. The samples (Vehicle or compounds of the invention) were administered per os (gavage) in a solution made of water supplemented with 0.4% hydroxypropyl methylcellulose (HPMC) Methocel 4 KM (w/v) and 0.25% Tween-20 (v/v), as previously described (Thackaberry et al., 2010, Toxicol Sci., 117(2):485-92). Concentrations of the compounds tested ranged from 3 to 30 mg/kg.
^18F-FDG PET Glucose uptake in the brain was measured in vivo using 18F-fluorodeoxyglucose (FDG) with positron emission tomography (PET) Scan. Mice were fasted for 12 hours before the scans PET/CT measurements. Compounds of the invention were administered by gavage, followed by an intraperitoneal injection of 5 MBq of ^18F-FDG in 300 μL of saline. […]

[4] = test system: GLUT1-DS transgenic mice; experiment: Rotarod motor function in GLUT1-DS transgenic mice; format: in vivo, mouse; details: single administration 10 mg/kg, 20 min before rotarod
Source text: Heterozygous transgenic mice on 129/SvJ genetic background in which glucose transporter 1 (GLUT1) has been knocked down were used (GLUT1(+/−)) (Wang et al., 2016, Human Molecular Genetics, 15(7)). GLUT1-deficiency syndrome (GLUT1-DS) is a prototypic hypometabolic diseases caused by the mutation of GLUT1 and decreased levels of glucose and lactate in the brain (Tang et al., 2019, Annals of Clinical and Translational Neurology 6(9)). Mating colonies were composed of wild-type female mice and GLUT1-DS male mice, or GLUT1-DS female mice and wild-type male mice. F1 pups were genotyped after ear punching at weaning using PCR to determine genotype. Mice of 2 to 3 months of age were used.
Motor function was measured in wild-type (WT) and GLUT 1-DS transgenic mice in the rotarod after single administration of Veh. or compound (1) or (2) (10 mg/kg) 20 min before rotarod. Rotarod testing consisted in placing the mouse on an accelerating rotating rod (4 to 40 r.p.m.) during a maximum of 300 seconds. 3 consecutive sessions with 15 min apart were performed. Latency for the mouse to fall from the rod was recorded and the maximal latency over the 3 trials was used as a measure of motor function.

In the case of COc1cc2ccnc(Nc3ccc(S(C)(=O)=O)cc3)c2cc1OC [Compound 2, 6,7-dimethoxy-N-(4-methylsulfonylphenyl)isoquinolin-1-amine], the “mitochondrial activity (MTT colorimetric assay)” value [1] is reported as “none of the selected compounds had direct effect on mitochondrial activity”, the EC50 [2] is reported as under 1 µM and the “glucose uptake in the brain (18F-FDG in the whole brain)” value [3] is reported as “increases glucose uptake in the brain”. The “rotarod performance (latency to fall)” value [4] was “increased rotarod performance”.
